Key:
[1] = system: immobilized rats (muscle atrophy and muscle damage); assay: Weight of tibialis anterior muscle of right hindlimb after immobilization; type: in vivo, rats (C57BL/6J); conditions: muscle not damaged by stapler, squalene 100 and 200 mg/kg/day oral for one week, vs immobilized group, *P<0.05, FIG. 5
Experimental: (§1) Seven-week-old male rats (C57BL/6J; DBL Co., Ltd.) were purchased as experimental animals, and experiments were conducted. All animals were kept at the Yonsei Laboratory Animal Research Center (YLARC, Seoul, Korea), and an environment under which the animals were kept was maintained at a temperature of 23±2° C. and a relative humidity of 55±10%. Before starting experiments, a total of 28 rats were randomly assigned to 7 rats per group, and the groups were divided into a normal group, an immobilized group, 100 mg/kg/day of squalene-administered group (squalene 100-administered group), and 200 mg/kg/day of squalene-administered group (squalene 200-administered group). After one week of adaptation, anesthesia was induced by intraperitoneal injection of 325 mg/kg of tribromoethanol (Sigma-Aldrich). […] One week later, the staples fixed on the gastrocnemius muscle and the sole were removed and squalene was orally administered at a concentration of 100 mg/kg and 200 mg/kg on a daily basis for one week. The normal group and the immobilized group were orally administered saline instead of squalene. After the measurement of muscular strength in the above <Example 4-2> was completed, the experimental animals were anesthetized by intraperitoneal injection of 325 mg/kg of tribromoethanol (Sigma-Aldrich), and then sacrificed by cardiac puncture. […]

[2] = system: immobilized rats (muscle atrophy and muscle damage); assay: Muscular strength (muscular strength meter) after hindlimb immobilization; type: in vivo, rats (C57BL/6J); conditions: squalene 100 and 200 mg/kg/day oral for one week after one week immobilization; vs immobilized group, **P<0.01; FIG. 4
Experimental: as §1, with “the oral administration period was completed” for “the measurement of muscular strength”, “<Example 4-1>, muscular strength of the rats” for “<Example 4-2>”, “was measured using a muscular strength meter (Columbus Instruments International, Columbus, Ohio, USA). All forelimbs and hindlimbs of” for “was completed,”, “the rat” for “the experimental animals”, “were grasped on a grid.” for “were anesthetized by intraperitoneal injection of 325 mg/kg of tribromoethanol (Sigma-Aldrich), and then sacrificed by cardiac puncture.”

[3] = system: immobilized rats (muscle atrophy and muscle damage); assay: Myofiber cross-sectional area in tibialis anterior muscle (H&E staining, Image J); type: in vivo, rats (C57BL/6J); conditions: squalene 100 and 200 mg/kg/day oral for one week; vs immobilized group, **P<0.01; FIG. 6
Experimental: Seven-week-old male rats (C57BL/6J; DBL Co., Ltd.) were purchased as experimental animals, and experiments were conducted. All animals were kept at the Yonsei Laboratory Animal Research Center (YLARC, Seoul, Korea), and an environment under which the animals were kept was maintained at a temperature of 23±2° C. and a relative humidity of 55±10%. Before starting experiments, a total of 28 rats were randomly assigned to 7 rats per group, and the groups were divided into a normal group, an immobilized group, 100 mg/kg/day of squalene-administered group (squalene 100-administered group), and 200 mg/kg/day of squalene-administered group (squalene 200-administered group). After one week of adaptation, anesthesia was induced by intraperitoneal injection of 325 mg/kg of tribromoethanol (Sigma-Aldrich). […] One week later, the staples fixed on the gastrocnemius muscle and the sole were removed and squalene was orally administered at a concentration of 100 mg/kg and 200 mg/kg on a daily basis for one week. The normal group and the immobilized group were orally administered saline instead of squalene. […] In addition, myofibers were photographed and a cross-sectional area thereof was measured with an Image J program (National Institutes of Health, Bethesda, […], USA).

[4] = system: p-p70S6K in C2C12 muscle cells; assay: Western blot of p-p70S6K protein in C2C12 muscle cells treated with squalene; type: cell-based; conditions: FIG. 2
Experimental: Thus, in order to identify this fact in a more specific manner, a phosphorylation-induced activity level of p70S6K protein, which is known to be involved in an mRNA translation process in muscle cells, was checked, instead of an expression level of p-mTOR. Specifically, C2C12 muscle cells were treated with squalene and cultured while inducing differentiation, by performing the same method as in the above <Example 1>. The resulting cells were obtained and subjected to western blotting. A p-p70S6K antibody (Santa Cruz Biotechnology, Inc., Santa Cruz, Calif., USA) was used as a primary antibody for western blotting.

[5] = system: atrogin-1 mRNA in C2C12 muscle cells; assay: RT-PCR of atrogin-1 mRNA expression in C2C12 muscle cells treated with squalene; type: cell-based; conditions: cultured 12 hours, FIG. 3
Experimental: (§2) Thus, in order to identify whether the produced muscle proteins can also be protected against degradation through degradation-inhibitory activity of squalene, mRNA transcriptional expression levels of atrogin-1 and MuRF1 which are muscle-degrading proteins were checked.
(§3) Specifically, C2C12 muscle cells were treated with squalene and cultured for 12 hours while inducing differentiation, by performing the same method as in the above <Example 1>. The resulting cells were obtained. Total RNA was isolated from the obtained cells using a TRIzol reagent (Invitrogen, Carlsbad, Calif., USA). The isolated total RNA was quantitated using NanoDrop 1000 (Thermo Fisher Scientific Inc., Waltham, Mass., USA). The quantified 16 μL of RNA was synthesized into cDNA using Reverse Transcriptase Premix (ELPISBIOTECH. INC) and a PCR machine (Gene Amp PCR System 2700; Applied Biosystems, Foster City, Calif., USA) under a condition at 42° C. for 55 minutes and 70° C. for 15 minutes. 3 μL of cDNA out of the synthesized cDNA, specific primers (BIONEER CORPORATION, Daejeon, Korea) as shown in the following [Table 1], and a PCR premix (ELPISBIOTECH. INC) were mixed, and PCR was performed by repeating 30 cycles of 95° C. for 30 seconds, 60° C. for 1 minute, and 72° C. for 1 minute. […]

[6] = system: MuRF1 mRNA in C2C12 muscle cells; assay: RT-PCR of MuRF1 mRNA expression in C2C12 muscle cells treated with squalene; type: cell-based; conditions: cultured 12 hours, FIG. 3
Experimental: as §2, §3

[7] = system: p-mTOR in C2C12 muscle cells; assay: Western blot of phosphorylated mTOR (p-mTOR) in C2C12 muscle cells treated with squalene; type: cell-based; conditions: FIG. 1
Experimental: In a case where mTOR protein is activated by phosphorylation, expression levels of major proteins in muscle cells which are expressed upon differentiation and are associated with muscle protein synthesis and muscle mass increase in a PI3K/Akt signaling pathway were checked. The obtained cells were lysed with an NP-40 buffer solution (ELPISBIOTECH. INC, Daejeon, Korea) containing a protease inhibitor cocktail (Sigma-Aldrich), and centrifuged at 13,000 rpm for 10 minutes to obtain a cell lysate which is a supernatant. A protein concentration in the supernatant was quantitated by Bradford. Then, a predetermined concentration of the proteins was heated for 5 minutes and separated by SDS-PAGE electrophoresis. The separated proteins were transferred to a nitrocellulose membrane. Then, a p-mTOR primary antibody (Cell Signaling Technology, Inc., Beverly, Mass., USA) was diluted with 2.5% bovine serum albumin (BSA; BioWORLD, Dublin, Ohio, USA) at a ratio of 1:1,000, and the resultant was allowed to react with the proteins, which had been transferred to the nitrocellulose membrane, at room temperature for 20 hours. […] Protein bands detected through antibody binding were developed using the ECL Western Blot Detection Reagent (Amersham, Tokyo, Japan), and the developed protein bands were identified using a G:BOX EF imaging system (Syngene, Cambridge, UK).

[8] = system: immobilized rats (muscle atrophy and muscle damage); assay: Weight of muscle physically directly damaged by the stapler (regeneration of damaged muscles); type: in vivo, rats (C57BL/6J); conditions: right hindlimb, squalene 100 and 200 mg/kg/day oral for one week, vs immobilized group, **P<0.01, FIG. 7
Experimental: Seven-week-old male rats (C57BL/6J; DBL Co., Ltd.) were purchased as experimental animals, and experiments were conducted. All animals were kept at the Yonsei Laboratory Animal Research Center (YLARC, Seoul, Korea), and an environment under which the animals were kept was maintained at a temperature of 23±2° C. and a relative humidity of 55±10%. Before starting experiments, a total of 28 rats were randomly assigned to 7 rats per group, and the groups were divided into a normal group, an immobilized group, 100 mg/kg/day of squalene-administered group (squalene 100-administered group), and 200 mg/kg/day of squalene-administered group (squalene 200-administered group). After one week of adaptation, anesthesia was induced by intraperitoneal injection of 325 mg/kg of tribromoethanol (Sigma-Aldrich). […] One week later, the staples fixed on the gastrocnemius muscle and the sole were removed and squalene was orally administered at a concentration of 100 mg/kg and 200 mg/kg on a daily basis for one week. The normal group and the immobilized group were orally administered saline instead of squalene. In the rat from which the tibialis anterior muscle of the right hindlimb was extracted in the above <Example 4-3>, a […] of the right hind limb, which was physically directly damaged by the stapler, was extracted and weighed.

SMILES: CC(C)=CCC/C(C)=C/CC/C(C)=C/CC/C=C(\C)CC/C=C(\C)CCC=C(C)C [squalene, (6E,10E,14E,18E)-2,6,10,15,19,23-hexamethyltetracosa-2,6,10,14,18,22-hexaene]
- weight of the tibialis anterior muscle [1]: increased in a concentration-dependent manner
- muscular strength [2]: restored in a concentration-dependent manner
- myofiber cross-sectional area in the tibialis anterior muscle [3]: increased in a concentration-dependent manner
- expression level of the p-p70S6K protein [4]: increased
- mRNA expression level of atrogin-1 [5]: decreased
- mRNA expression level of MuRF1 [6]: decreased
- expression level of phosphorylated mTOR (p-mTOR) [7]: increased
- weight of the tibialis anterior muscle physically directly damaged by the stapler [8]: increased in a concentration-dependent manner
